Seven compounds from US6790833B2, “Antifungal and antibacterial agents” (priority 2001, dated 2004) can be followed below.

“Also recorded” adds a separate entry of the source.

The test system of data set [1] is fungi or bacteria. Kind of data set: Antifungal and antibacterial activity assays, overall statements. Format: cell-based. As to the method:
(§1) Two fold serial dilutions of each peptide (ranging from 100 μM down to 1.5625 μM) in 20 μl of 10 mM Na phosphate buffer, pH 7.4, were incubated with an equal volume of bacterial or fungal strain (10^5 cells/ml) for 1.5 hours at 30° C. for S. cerevisiae and 37° C. for the rest of strains tested. At the end of incubation, the samples were diluted 20 fold and aliquots (˜120 cells) of each sample were plated on appropriate plates depending on the strain tested, as indicated above. Plates were incubated for 1 to 7 days aerobically or anaerobically, depending on the strain tested. Colonies were then counted, and the loss of cell viability was plotted as a function of protein concentration. Fungicidal activities against C. albicans and C. neoformans were also tested at 4° C.
(§2) A time course study of peptide-induced killing was statistically analyzed by student t-test.

Data set [2] concerns C. neoformans. Description: Antifungal (cidal) activity assay, loss of cell viability. Format: cell-based, Cryptococcus neoformans. To be noted: for ED50 (95% confidence limit) C. neoformans: Example 2, 1.5 hours, 37°, 10 mM Na phosphate buffer pH 7.4; for Loss of Cell viability (%): 6.25 μM.
Source text: (§3) Azole-sensitive (# 2-76) and azole-resistant (# 12-99) clinical isolates of C. albicans were a gift from Dr. Theodore C. White (University of Washington and Seattle Biomedical Research Institute, Seattle, Wash.). An azole-sensitive Candida glabrata (C. glabrata) was purchased from ATCC (ATCC 90030) and its azole-resistant counterpart, clinical isolate 65C, was obtained from Dr. John E. Bennett (National Institute of Allergy and Infectious Diseases, Bethesda, Md.). A clinical isolate of Candida krusei (C. krusei) was obtained from the Erie County Medical Center, Buffalo, N.Y. Amphotericin B-sensitive (CN2) and -resistant (CN2843) C. neoformans strains were obtained from AIDS patients with cryptococcal meningitis and were generously provided by Dr. John H. Rex (University of Texas Medical School, Houston, Tex.). Additionally, Saccharomyces cerevisiae (S. serevisiae) strain S288C was provided by Dr. D. Kosman, Department of Biochemistry, University at Buffalo, the State University of New York. All fungi were streaked and grown on SAB plates at 37° C., except S. cerevisiae, which was grown at 30° C. until large colonies were formed. One colony was then picked and resuspended in Na phosphate buffer (pH 7.4) and the concentration was adjusted to 1×10^5 cell/ml for the antifungal assay described below.
as §1
(§4) To test the effect of inhibitors of oxidative phosphorylation in the mitochondrial system on peptide-induced killing, C. albicans and C. neoformans (CN2) were preincubated with either 20 mM sodium azide or 300 μM CCCP for 2 hours at 37° C. The cidal assays were then carried out as described above. In separate control experiments, both inhibitors were evaluated for their toxicity toward C. albicans and C. neoformans (CN2) in the absence of peptides. At these concentrations, neither compound had any cidal effect. In addition, the fungicidal activities of MUC7 20-mer and Hsn-5 (25 μM) in 10 mM Na phosphate buffer (pH 7.4) in the presence of varying concentrations (1-50 mM) of Ca^++ (as CaCl2) or Mg^++ (as MgCl2) were examined.
as §2
(§5) Two fold serial dilutions of each peptide (ranging from 50 or 25 μM down to 1.5625 μM) in 20 μl of 10 mM Na phosphate buffer, pH 7.4, were incubated with an equal volume of fungal strain (10^5 cells/ml, also in Na phosphate buffer) for 1.5 hours at 37°. At the end of incubation, the samples were diluted 20 fold with the same buffer and aliquots (˜150 cells) of each sample were plated on SAB plates. Plates were incubated for 1 to 2 days for C. albicans and C. neoformans, respectively. Colonies were then counted, and the loss of cell viability was plotted as a function of protein concentration. The statistical analysis was as described in Example 1.

Data set [3] concerns C. albicans. Described as above. The class given is cell-based, Candida albicans. The settings on record: for ED50 (95% confidence limit) C. albicans: Example 2, 1.5 hours, 37°, 10 mM Na phosphate buffer pH 7.4; for Loss of Cell viability (%): 6.25 μM.
Source text: as §3, §1, §4, §2, §5

Data set [4] relates to C. albicans. Description: Fluorescence light and confocal microscopy, internalization of FITC-labeled peptide. The class given is cell-based, Candida albicans. The settings on record: 50 μM, 45-90 minutes, 37° C. As to the method: (§6) The internalization of MUC7 20-mer into fungi was visualized in C. albicans and C. neoformans. Untreated cells (10^7) or cells preincubated with 20 mM sodium azide, 300 μM CCCP, 50 mM Ca^++ or 50 mM Mg^++ were then treated with 50 μM FITC-MUC7 20-mer for 45-90 minutes in 100 μl of Na phosphate buffer (10 mM, pH 7.4) at 37° C. Untreated cells were also incubated with 50 μM FITC-MUC7 20-mer at 4° C. The cells were then extensively washed with phosphate buffer, concentrated and resuspended in the same buffer. The cell suspension was then quickly mounted on slides with sealed cover-slips. Fluorescence light micrographs were made on a Nikon Optiphot microscope, with a fluorescent light source.
(§7) The intracellular localization of FITC-MUC7-20mer was investigated in a double-labeling experiment using MitoTracker Red mitochondrial probe. C. albicans and C. neoformans were incubated with 500 nM MitoTracker Red in 10 mM Na phosphate buffer, pH 7.4 for 15 minutes at room temperature, washed three times with the same buffer, and subsequently incubated with 50 μM FITC-MUC7 20-mer. After 20 min. incubation at 37° C., the suspension was washed with phosphate buffer extensively. The cell suspension was then quickly mounted on slides with sealed cover-slips. Confocal fluorescence microscopy was performed with a BioRad MRC-1024 confocal microscope system with Krypton-argon laser which outputs 488, 568 and 647 nm excitation line and Nikon upright epifluorescence microscope (Zeiss 60× oil immersion planApp objective with 1.4 numerical aperture).
(§8) The internalization of MUC7 20-mer and 12-mer-3 into fungi was visualized using FITC labeled peptides. Cells (10^7) were treated with 50 μM FITC-MUC7 20-mer or 12-mer-3 for 45-90 mins in 100 μl of Na phosphate buffer (10 mM, pH 7.4) at 37° C. The cells were then processed and visualized as described in Example 1.

Data set [5] concerns C. neoformans. The description is as above. Format: cell-based, Cryptococcus neoformans. The settings on record: 50 μM, 45-90 minutes, 37° C. Here is the method: as §6, §7, §8
The subject of data set [6] is A. actinomycetemcomitans. Kind of data set: Antibacterial (cidal) activity assay, loss of cell viability. Format: cell-based, Actinobacillus actinomycetemcomitans. Here is the method:
(§9) The following bacterial strains were tested: Streptococcus mutans (S. mutans) GS-5, Streptococcus gordonii (S. gordonii) Challis, Escherichia coli (E. coli) HB101, Pseudomonas aeruginosa (P. aeruginosa) ATCC 17648, Actinobacillus actinomycetemcomitans (A. actinomycetemcomitans) NCTC9710, Porphyromonas gingivalis (P. gingivalis) 381 and W50. S. mutans, S. gordonii, A. actinomycetemcomitans and P. aeruginosa were grown anaerobically by candle jar extinction at 37° C. on TSB plates. P. gingivalis was grown in anaerobic chamber at 37° C. on sheep blood agar plates. E. coli was grown aerobically at 37° C. on LB agar plates.
(§10) Two fold serial dilutions of each peptide (ranging from 100 μM down to 1.5625 μM) in 20 μl of 10 mM Na phosphate buffer, pH 7.4, were incubated with an equal volume of bacterial or fungal strain (10^5 cells/ml) for 1.5 hours at 30° C. for S. cerevisiae and 37° C. for the rest of strains tested. At the end of incubation, the samples were diluted 20 fold and aliquots (˜120 cells) of each sample were plated on appropriate plates depending on the strain tested, as indicated above. […] Colonies were then counted, and the loss of cell viability was plotted as a function of protein concentration. […]
as §2

Data set [7] deals with S. mutans. Described as above. The class given is cell-based. The settings on record: Streptococcus mutans, read-out: ED50 (95% confident limit). Here is the method:
as §9, §10, §2

For the compound “12-mer (amino acids 40-51 of MUC7D1), SEQ ID NO.6: RKSYKCLHKRCR (OTHER INFORMATION: 12-mer; Amino acids 40-51 of the MUC7D1 peptide.) [Peptide 12-mer]”, the “cidal activity against fungi or bacteria” value in data set [1] is “active against a variety of fungi and bacteria”.

“12-mer with arginine and lysine at position 40 and 41 replaced by alanine, SEQ ID NO.11: AASYKCLHKRCR (OTHER INFORMATION: 12-mer-2 variant of the 12-mer) [Peptide 12-mer-2]”: the “ED50 (95% confidence limit) C. neoformans” value in data set [2] is given as “comparable to that of unaltered 12-mer”.

On to “12-mer with both cysteines replaced by alanine, SEQ ID NO.13: RKSYKALHKRAR (OTHER INFORMATION: 12-mer-4 variant of the 12-mer) [Peptide 12-mer-4]”, for which the “ED50 (95% confidence limit) C. neoformans” value in data set [2] is “did not alter 12-mer antifungal activity”. Moreover, in data set [3], the “ED50 (95% confidence limit) C. albicans” value is listed as “did not alter 12-mer antifungal activity”.

Turning to “12-mer with positions 40, 41, 44, 48, 49 and 51 replaced by alanine, SEQ ID NO.12: AASYACLHAACA (OTHER INFORMATION: 12-mer-3 variant of the 12-mer) [Peptide 12-mer-3]”, the “internalization of FITC-labeled peptide” value in data set [4] and in data set [5] was “No internalization” throughout. Also, the “ED50 (95% confidence limit) C. neoformans” value in data set [2] is listed as “cidal activity was diminished; also recorded: No activity”. The “ED50 (95% confidence limit) C. albicans” value in data set [3] is on record as “no anticandidal activity”.

`C[C@H](NC(=O)[C@H](Cc1cnc[nH]1)NC(=O)[C@H](CO)NC(=O)[C@@H](N)CC(=O)O)C(=O)N[C@@H](CCCCN)C(=O)N[C@@H](CCCNC(=N)N)C(=O)N[C@@H](Cc1cnc[nH]1)C(=O)N[C@@H](Cc1cnc[nH]1)C(=O)NCC(=O)N[C@@H](Cc1ccc(O)cc1)C(=O)N[C@@H](CCCCN)C(=O)N[C@@H](CCCNC(=N)N)C(=O)N[C@@H](CCCCN)C(=O)N[C@@H](Cc1ccccc1)C(=O)N[C@@H](Cc1cnc[nH]1)C(=O)N[C@@H](CCC(=O)O)C(=O)N[C@@H](CCCCN)C(=O)N[C@@H](Cc1cnc[nH]1)C(=O)N[C@@H](Cc1cnc[nH]1)C(=O)N[C@@H](CO)C(=O)N[C@@H](Cc1cnc[nH]1)C(=O)N[C@@H](CCCNC(=N)N)C(=O)NCC(=O)N[C@@H](Cc1ccc(O)cc1)C(=O)O` [Hsn-5, reference compound]: the “effect of pretreatment with CCCP or sodium azide on peptide-induced killing” value in data set [2] (C. neoformans, 300 μM CCCP or 20 mM sodium azide, 2 hours) is “unable to do the same”; in data set [3] (C. albicans, 300 μM CCCP or 20 mM sodium azide, 2 hours), “rescued Candida cells from killing”. Besides, in data set [2] (C. neoformans, 4° C.), the “activity at 4° C.” value was “hardly affected”. Besides, the “Loss of Cell viability (%)” value was 9 ± 2% in data set [2] (C. neoformans, 5 min); 43 + 3% in data set [2] (C. neoformans, 15 min); 59 + 5% in data set [2] (C. neoformans, 30 min); 64 + 1% in data set [2] (C. neoformans, 45 min); 71 + 7% in data set [2] (C. neoformans, 90 min); 0 + 0% in data set [3] (C. albicans, 5 min). The “Loss of Cell viability (%)” value is 1 + 3% in data set [3] (C. albicans, 15 min); 11 + 4% in data set [3] (C. albicans, 30 min); 34 + 2% in data set [3] (C. albicans, 45 min); 42 + 3% in data set [3] (C. albicans, 90 min). The “Peptide-induced killing without the cations” value is reported as 100% in data set [2] (C. neoformans, Na phosphate buffer, 25 μM) and 100% in data set [3] (C. albicans, Na phosphate buffer, 25 μM). In addition, in data set [1], the “concentration for killing bacteria relative to killing fungi” value is recorded as “more than 10 fold”. In data set [3] (C. albicans, 4° C.), the “potency at 4° C.” value was “limited potency”. The “loss of cell viability at the highest concentration tested” value in data set [6] (100 μM) came to 24%.

Take `[H]/N=C(/N)N[C@H]1[C@H](O)[C@@H](O)[C@H](O[C@@H]2O[C@@H](C)[C@](O)(C=O)[C@H]2O[C@@H]2O[C@@H](CO)[C@H](O)[C@@H](O)[C@@H]2NC)[C@@H](N/C(N)=N\[H])[C@@H]1O` [streptomycin]: the EC50 turned out to be 64 µM in data set [7] and 2.7 µM in data set [6] (Aggregatibacter actinomycetemcomitans, read-out: ED50 (95% confident limit)).

In the case of “from the N-terminus of the 20-mer (amino acids 32-39), SEQ ID NO.10: LAHQKPFI (OTHER INFORMATION: 8-mer-N; Amino acids 32-3 9 of the MUC7D1 peptide.) [Peptide 8-mer-N]”, the “ED50 (95% confidence limit) C. neoformans” value in data set [2] is reported as “No activity”; in data set [2] (listed as N-terminal 8-mer), “no antifungal activity”. In addition, in data set [1], the antibacterial activity entry was “did not exhibit antibacterial activity”. Besides, the “ED50 (95% confidence limit) C. albicans” value in data set [3] was “No activity”; in data set [3] (listed as N-terminal 8-mer), “no antifungal activity”.
